Results taken from PubChem BioAssay AID192 (DTP/NCI, 2004).
Several values for one entry are separate records, joined by “and”; a condition that tells them apart may be missing. Identical values can stand only once. Toxic doses and inconclusive results are not listed. Numbered stars: 1 amine (or outer) side, 2 acyl side, 3 side chain; on linkers, the order of the positions; unused ones are H or OH. Bridge positions count the residues as written; N and C are the ends. Square brackets hold non-standard residues; d marks the D form. Peptide text beside a SMILES is read from it. I, II: the chains in the order shown. Actinocin(9to1) = Cc1c2oc3c(C)ccc(C(=O)[*:1])c3nc-2c(C(=O)[*:2])c(N)c1=O; NMeV = CN[CH](C(=O)O)C(C)C; Sar = CNCC(=O)O

Test system: BDF1 mice, B16 melanoma ip, median survival T/C
Test: NCI In Vivo Anticancer Drug Screen. Data for tumor model B16 Melanoma (intraperitoneal) in B6D2F1 (BDF1) mice
Conditions: endpoint: median survival time, higher = longer survival
Method in brief: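 Survival or tumor size is measured after treatment of tumor-bearing mice and normalised to the vehicle-treated control group.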

[1] = dose: 12.5 mg/kg/injection, schedule: Q01DX009 (ip), vehicle: saline with Tween-80
[2] = dose: 25.0 mg/kg/injection, schedule: Q01DX009 (ip), vehicle: saline with Tween-80
[3] = dose: 50.0 mg/kg/injection, schedule: Q01DX009 (ip), vehicle: saline with Tween-80
[4] = dose: 12.5 mg/kg/injection, schedule: Q01DX009 (ip), vehicle: saline
[5] = dose: 25.0 mg/kg/injection, schedule: Q01DX009 (ip), vehicle: saline
[6] = dose: 100.0 mg/kg/injection, schedule: Q01DX009 (ip), vehicle: Klucel (hydroxypropylcellulose) (HPC)
[7] = dose: 200.0 mg/kg/injection, schedule: Q01DX009 (ip), vehicle: Klucel (hydroxypropylcellulose) (HPC)
[8] = dose: 400.0 mg/kg/injection, schedule: Q01DX009 (ip), vehicle: Klucel (hydroxypropylcellulose) (HPC)
[9] = dose: 100.0 mg/kg/injection, schedule: Q01DX009 (ip), vehicle: saline with Tween-80
[10] = dose: 200.0 mg/kg/injection, schedule: Q01DX009 (ip), vehicle: saline with Tween-80
[11] = dose: 400.0 mg/kg/injection, schedule: Q01DX009 (ip), vehicle: saline with Tween-80

SMILES: CCn1cnc2c(=S)nc[nH]c21
- T/C (dose: 6.25 mg/kg/injection, schedule: Q01DX009 (ip), vehicle: saline with Tween-80): 97 % of control
- T/C [1]: 86 % of control
- T/C [2]: 95 % of control
- T/C [3]: 89 % of control and 104 % of control

SMILES: CC1CCCC(C)N1NC1=NCCO1 (stereo not given)
- T/C [1]: 97 % of control
- T/C [2]: 102 % of control
- T/C [3]: 97 % of control

SMILES: Cc1cc(Cl)ccc1OCC(=O)Nc1nc(N)nc(N)n1
- T/C (dose: 12.5 mg/kg/injection, schedule: Q04DX009 (ip), vehicle: Klucel (hydroxypropylcellulose) (HPC)): 88 % of control
- T/C (dose: 25.0 mg/kg/injection, schedule: Q04DX009 (ip), vehicle: Klucel (hydroxypropylcellulose) (HPC)): 92 % of control
- T/C (dose: 50.0 mg/kg/injection, schedule: Q04DX009 (ip), vehicle: Klucel (hydroxypropylcellulose) (HPC)): 87 % of control

SMILES: O=C(Cl)C1CC2c3ccccc3C1([N+](=O)[O-])c1ccccc12 (stereo not given)
- T/C (dose: 50.0 mg/kg/injection, schedule: Q04DX003 (ip), vehicle: Klucel (hydroxypropylcellulose) (HPC)): 94 % of control
- T/C (dose: 100.0 mg/kg/injection, schedule: Q04DX003 (ip), vehicle: Klucel (hydroxypropylcellulose) (HPC)): 100 % of control
- T/C (dose: 200.0 mg/kg/injection, schedule: Q04DX003 (ip), vehicle: Klucel (hydroxypropylcellulose) (HPC)): 102 % of control

SMILES: COc1cc(Cl)ccc1C
- T/C (dose: 37.5 mg/kg/injection, schedule: Q01DX001 (ip), vehicle: Klucel (hydroxypropylcellulose) (HPC)): 103 % of control
- T/C (dose: 75.0 mg/kg/injection, schedule: Q01DX001 (ip), vehicle: Klucel (hydroxypropylcellulose) (HPC)): 182 % of control
- T/C (dose: 150.0 mg/kg/injection, schedule: Q01DX001 (ip), vehicle: Klucel (hydroxypropylcellulose) (HPC)): 116 % of control
- T/C (dose: 300.0 mg/kg/injection, schedule: Q01DX001 (ip), vehicle: Klucel (hydroxypropylcellulose) (HPC)): 100 % of control

SMILES: CN(C)CCCN1c2ccccc2Sc2ccc(Cl)cc21
- T/C (dose: 1.0 mg/kg/injection, schedule: Q01DX009 (ip), vehicle: saline): 101 % of control
- T/C (dose: 2.0 mg/kg/injection, schedule: Q01DX009 (ip), vehicle: saline): 111 % of control and 93 % of control
- T/C (dose: 4.0 mg/kg/injection, schedule: Q01DX009 (ip), vehicle: saline): 110 % of control and 100 % of control
- T/C (dose: 8.0 mg/kg/injection, schedule: Q01DX009 (ip), vehicle: saline): 92 % of control and 102 % of control
- T/C (dose: 12.5 mg/kg/injection, schedule: Q01DX009 (ip), vehicle: alkali diluted with saline): 100 % of control
- T/C (dose: 12.5 mg/kg/injection, schedule: Q01DX009 (ip), vehicle: saline sonified): 97 % of control
- T/C (dose: 16.0 mg/kg/injection, schedule: Q01DX009 (ip), vehicle: saline): 94 % of control
- T/C (dose: 25.0 mg/kg/injection, schedule: Q01DX009 (ip), vehicle: alkali diluted with saline): 92 % of control
- T/C (dose: 25.0 mg/kg/injection, schedule: Q01DX009 (ip), vehicle: saline sonified): 90 % of control
- T/C (dose: 32.0 mg/kg/injection, schedule: Q01DX009 (ip), vehicle: saline): 92 % of control
- T/C (dose: 64.0 mg/kg/injection, schedule: Q01DX009 (ip), vehicle: saline): 87 % of control

SMILES: FC(F)(F)c1cc(CN(CCCl)CCCl)cc(C(F)(F)F)c1
- T/C [4]: 97 % of control
- T/C [5]: 92 % of control

SMILES: COc1ccc2c(c1OC)C(=O)O[C@@H]2[C@H]1c2cc3c(cc2CCN1C)OCO3
- T/C (dose: 10.0 mg/kg/injection, schedule: Q01DX009 (ip), vehicle: saline): 112 % of control
- T/C (dose: 20.0 mg/kg/injection, schedule: Q01DX009 (ip), vehicle: saline): 108 % of control
- T/C (dose: 40.0 mg/kg/injection, schedule: Q01DX009 (ip), vehicle: saline): 98 % of control
- T/C (dose: 80.0 mg/kg/injection, schedule: Q01DX009 (ip), vehicle: saline): 109 % of control

SMILES: Cc1c2oc3c(C)ccc(C(=O)NC4C(=O)NC(C(C)C)C(=O)N5CCCC5C(=O)N(C)CC(=O)N(C)C(C(C)C)C(=O)OC4C)c3nc-2c(C(=O)NC2C(=O)NC(C(C)C)C(=O)N3CCCC3C(=O)N(C)CC(=O)N(C)C(C(C)C)C(=O)OC2C)c(N)c1=O (stereo not given) (I: TVP[Sar][NMeV] / II: TVP[Sar][NMeV]; ester I:1-I:C, II:1-II:C; linker I:N-II:N via Actinocin(9to1); configuration not given here)
- T/C (dose: 0.06 mg/kg/injection, schedule: Q01DX009 (ip), vehicle: saline): 165 % of control
- T/C (dose: 0.12 mg/kg/injection, schedule: Q01DX009 (ip), vehicle: saline): 177 % of control and 180 % of control

SMILES: O=c1c2ccccc2sc2ccc(Br)cc12
- T/C [6]: 110 % of control
- T/C [7]: 100 % of control
- T/C [8]: 102 % of control

SMILES: CNC(=O)Oc1ccc2ccccc2c1
- T/C [9]: 100 % of control
- T/C [10]: 104 % of control
- T/C [11]: 93 % of control

SMILES: C/C=C(/C)C(=O)O[C@H]1CCN2CC=C(COC(=O)[C@@](O)([C@H](C)OC)C(C)(C)O)[C@H]12
- T/C [4]: 114 % of control
- T/C [5]: 104 % of control

SMILES: Cc1cc2cc3c(C)cc(=O)oc3c(C)c2o1
- T/C [9]: 119 % of control
- T/C [10]: 117 % of control
- T/C [11]: 100 % of control

SMILES: CCN(N=Nc1ccc(C)cc1)N=Nc1ccc(C)cc1
- T/C [6]: 90 % of control
- T/C [7]: 96 % of control
- T/C [8]: 86 % of control
